From patent US10206906B2, “Synergistic combination of a phenolic-rich maple syrup extract and an antibiotic” (priority 2015, dated 2019)

How the values were obtained:
[1] = tested on: P. aeruginosa PAO1; assay: Checkerboard microdilution assay (growth inhibition synergy); type: cell-based, Pseudomonas aeruginosa
Description: (§1) The checkerboard microdilution assay is used for evaluation of in vitro antimicrobial synergy between two compounds (i.e., antibiotic/PRMSE, antibiotic/pure phenolic compound, and pure phenolic compounds with each other). Two-fold serial dilutions are prepared in MHB-II for each of the two compounds under study. The serial dilutions are then loaded into 96 well plates to achieve combinations having different concentrations of each of the two compounds. Each well is subsequently inoculated with 10^6 CFU mL^−1 of the desired bacterial strain and incubated at 37° C. for 18 h under static conditions. The Fractional Inhibitory Concentration Index (FICI) for each combination is calculated by using the following formula: FICcomponent 1=MICcomponent 1, in combination/MICcomponent 1,alone FICI=FICcomponent 1+FICcomponent 2
(§2) The FICIs are interpreted as follows: FICI of […] (synergy); 0.5<FICI ≤1 (no interaction/indifference); FICI of >4 (antagonism).

[2] = tested on: P. aeruginosa PA14; assay: as above; type: cell-based, Pseudomonas aeruginosa
Description: as §1, §2

[3] = tested on: E. coli CFT073 biofilm; assay: Biofilm formation, microtitre plate crystal violet assay; type: cell-based, Escherichia coli; details: p<0.05
Description: Biofilm formation is quantified using the standard microtitre plate model. […] Aliquots (100 μL) of these cultures are transferred into the wells of polystyrene, flat bottom, non-treated 96 well plates (Falcon™, Corning™), in triplicate. For all assays, biofilms are allowed to develop for 16 h at 37° C. under static conditions, after which OD600 values are recorded, the spent broth is decanted from the wells, and the wells are gently rinsed three times with DI water. The washed biofilm is stained with crystal violet (CV). For CV stain assay, 100 μL of 0.1% (w/v) CV is loaded in each well and the plates are incubated for 15 min under static conditions at room temperature. The wells are subsequently rinsed with DI water to remove excess dye and the CV adsorbed to the biomass in each well is solubilized in 100 μL of absolute ethanol for 10 min. The solubilized CV is then quantified (as OD570) using a microplate reader. Control experiments are performed with cell-free broth to adjust for the background signal.

[4] = tested on: proton motive force-driven multidrug efflux pump of P. mirabilis HI4320; assay: Ethidium bromide (EtBr) efflux assay; type: cell-based, Proteus mirabilis; details: PRMSE, catechol at 0.25 times the MIC; CCCP 100 μM; untreated cells 35.9
Description: An overnight grown culture of each strain is diluted 1:100 using MHB-II broth to a final volume of 10 mL and grown to an OD600 of 0.8-1.0 (at 37° C., 150 rpm). […] The tubes are incubated for 1 h (37° C., 150 rpm). The inoculum is then adjusted to 0.4 OD600 with MHB-II broth containing 5 μM EtBr and 2 mL aliquots of this mixture are pelleted (5000×g, 10 min at 4° C.). The pellets are incubated on ice immediately, resuspended in 1 mL of MHB-II, and aliquoted (200 μL) into a polystyrene 96 well black, clear-bottom plate (Corning™, Fisher Scientific, ON, Canada). EtBr efflux from the cells is monitored at room temperature using the microplate reader (ex/em 530/600 nm). Readings are taken at 5 min intervals for 1 h to monitor efflux pump activity. The background fluorescence of the medium is subtracted from all measurements and the assay is repeated independently in triplicate.

[5] = tested on: E. coli CFT073; assay: Checkerboard microdilution assay (growth inhibition synergy); type: cell-based, Escherichia coli
Description: as §1, §2

[6] = ciprofloxacin in combination with the labelled phenolic constituent
[7] = labelled constituent + gallic acid, * = synergistic
[8] = labelled constituent combined with gallic acid
[9] = labelled phenolic constituent in combination with ciprofloxacin

SMILES: Oc1ccccc1O [catechol, 1,2-dihydroxybenzene]
- FIC of ciprofloxacin [1, 6]: 0.25
- FICI, gallic acid [1, 7]: 0.5*
- FIC, gallic acid [1, 8]: 0.25
- FIC of compound [1, 9]: 0.25
- FIC of ciprofloxacin [2, 6]: 0.25
- FICI, gallic acid [2, 7]: 0.37*
- FIC, gallic acid [2, 8]: 0.25
- FIC of compound [2, 9]: 0.25
- inhibition of monoculture biofilm formation (OD570/OD600) ([3]; substance alone at sub-lethal concentrations, 16 h): significant inhibitory effects
- inhibitory effect on biofilm formation, with ciprofloxacin ([3]; with ciprofloxacin, both at sub-lethal concentrations): significant inhibitory effects
- Efflux pump activity [4]: 33.9%
- FIC of ciprofloxacin [5, 6]: 0.25
- FICI, gallic acid [5, 7]: 0.25*
- FIC, gallic acid [5, 8]: 0.13
- FIC of compound [5, 9]: 0.25
